Data on one compound can be found in patent publication US20240342121A1, “THE USE OF BETA-HYDROXYBUTYRATES FOR THE TREATMENT OR PREVENTION OF ANEURYSMS AND DISSECTIONS” (priority 2021, published 2024).

Data set [1] deals with senescent SMCs. Kind of data set: Cellular viability (cytotoxicity) assay of senescent and normal SMCs. The class given is cell-based. Conditions: premature senescence by H2O2, Arsenite or Nutlin 3a, FIG. 2A. As to the method: (§1) FIGS. 2A-2L. (a) Cytotoxicity assay of normal smooth muscle cells (NS) and senescent smooth muscle cells (SMCs). Replicative senescent SMCs (RS) and premature senescent SMCs, stimulated by H2O2 (HP), arsenic (Ars), and Nutlin 3a (Nut) treatment were treated with βHB, s-βHB, and ABT-737. (b) Flow cytometry analysis of apoptosis by βHB or s-βHB in radiation (10 Gy)-induced senescent SMC. (c) Quantitation of apoptotic cell and senescent cell after treating βHB and s-βHB in radiation-induced senescent SMC. (d) Representative aorta image of AII-infused mice with post-treatment of ABT-737, βHB and s-βHB. (e) External diameter of abdominal aorta infused with AII and post-treated with ABT-737 βHB and s-βHB. (f) SA-βGal activity assay of the whole aorta infused with AII, and post-treated with ABT-737, KD, or KE. (g) Quantitation of senescent area on aorta of AII-infused mice, and post-treated with KD, KE and ABT-737. (h) TUNEL assay on the abdominal aorta of AII infused mice, and treated with ABT-737, βHB, or s-βHB. SM-α Actin (SMA) and DAPI are co-stained after TUNEL reaction. […]
The clearance of senescent cells that accumulate during the aneurysm development is required to reduce the volume of aneurysm plaque. Thus, the senotherapeutic potential of βHB to reverse AAA progression was evaluated. […]

In data set [2] the test system is senescent SMCs. Kind of data set: Flow cytometry (FACS) apoptosis analysis, PI and Annexin V. Format: cell-based. The settings on record: FIGS. 2B, 2C. As to the method:
as §1, with “reaction. (i) Caspase 3 activity assay on normal SMCs (NC) treated with βHB, or s-βHB, and ABT-737 comparing to normal cells pretreated with Nutlin-3a. (j) Caspase 3 activity assay on senescent SMCs (SNC) treated with βHB, or s-βHB, and ABT-737 compared to senescent cells pretreated with pifithrin-α.” for “reaction.”
A general note: A flow cytometer gives signals particle by particle.

The subject of the next data set is normal SMCs (NC). Nature of the data set: Caspase 3 activity assay on normal SMCs. The settings on record: FIG. 2I. The class given is cell-based. As to the method: (§2) FIGS. 2A-2L. (a) Cytotoxicity assay of normal smooth muscle cells (NS) and senescent smooth muscle cells (SMCs). Replicative senescent SMCs (RS) and premature senescent SMCs, stimulated by H2O2 (HP), arsenic (Ars), and Nutlin 3a (Nut) treatment were treated with βHB, s-βHB, and ABT-737. (b) Flow cytometry analysis of apoptosis by βHB or s-βHB in radiation (10 Gy)-induced senescent SMC. (c) Quantitation of apoptotic cell and senescent cell after treating βHB and s-βHB in radiation-induced senescent SMC. (d) Representative aorta image of AII-infused mice with post-treatment of ABT-737, βHB and s-βHB. (e) External diameter of abdominal aorta infused with AII and post-treated with ABT-737 βHB and s-βHB. (f) SA-βGal activity assay of the whole aorta infused with AII, and post-treated with ABT-737, KD, or KE. (g) Quantitation of senescent area on aorta of AII-infused mice, and post-treated with KD, KE and ABT-737. (h) TUNEL assay on the abdominal aorta of AII infused mice, and treated with ABT-737, βHB, or s-βHB. SM-α Actin (SMA) and DAPI are co-stained after TUNEL reaction. (i) Caspase 3 activity assay on normal SMCs (NC) treated with βHB, or s-βHB, and ABT-737 comparing to normal cells pretreated with Nutlin-3a. (j) Caspase 3 activity assay on senescent SMCs (SNC) treated with βHB, or s-βHB, and ABT-737 compared to senescent cells pretreated with pifithrin-α. (k) Western blot analysis for p53 and puma expression on abdominal aorta tissue from mice treated with AII or KE. (I) Immunohistochemistry staining for puma expression on abdominal aorta infused by AII and post-treated with KE.
To overcome the anti-apoptotic barrier of senescence cells, senolytics usually target p53/Bcl2 cascades. Moreover, p53 is considered as a barrier to prevent apoptosis in senescence cells. Therefore, it was investigated if βHB-mediated apoptosis is p53 dependent. […] To further validate p53 dependent apoptosis on AAA, p53 activation and puma expression were investigated. […] In addition, inflammatory response accompanying the apoptosis of senescence cells was observed specifically in the abdominal aorta tissue, while systemic inflammation decreased during ketotherapy (FIGS. 10A-F). […] Ketotherapy can lower the blood pressure caused by AII infusion, which is not the case with ABT-737 (FIGS. 10H-J).

The next data set has as its system senescent SMCs (SNC). Kind of data set: Caspase 3 activity assay on senescent SMCs. The class given is cell-based. The settings on record: p53 inhibition by pifithirin-α, FIG. 2J. As to the method:
as §2, with “(k) Western blot analysis for p53 and puma expression on abdominal aorta tissue from mice treated with AII or KE. (I) Immunohistochemistry staining for puma expression on abdominal aorta infused by AII and post-treated with KE.” left out

The conditions of data set [3]: in vivo. The text has this: We established an in vivo tolerance test of βHB and s-βHB (FIGS. 9A and 9B). […] The reduction of the inner diameter of the aortic wall is also dramatic in the treatment of s-βHB in FIG. 9F (Two-way ANOVA, ^###P<0.005, n=10).
For the next data set, the system named is CaCl2-induced AAA. Kind of data set: CaCl2-induced AAA animal model, post-treatment. Format: in vivo, mouse. As to the method: FIGS. 5A-5J. (a) Representative image of aorta which developed CaCl2)-induced AAA, and post-treated with KD, KE, βHB, s-βHB, or ABT-737. KD is provided to mice for 4 weeks, KE is administrated with drinking water, βHB, s-βHB or ABT-737 are IP injected for 2 weeks with 48h intervals. (b) Incidence of AAA by CaCl2) treatment and proportion of mice recovered from the AAA after post-treatment of KD, KE, βHB and s-βHB for 2 weeks. (c) Time-dependent observation of inner diameter after CaCl2) treatment and post-treatment of KD or KE (28˜56 days after surgery). (d) Comparison of ultrasound images of CaCl2)-induced AAA to the identical aorta post-treated with βHB for 2 weeks. (e) H&E staining of aorta from the mice developed with CaCl2)-induced AAA, and post-treated with KD, KE, βHB, and s-βHB. (f) SA β-Gal activity assay on aorta which developed CaCl2)-induced AAA, and post-treated with KD, KE, βHB, s-βHB, or ABT-737. (g) Quantitation of senescent area on aorta developed with CaCl2)-induced AAA, and post-treated with KD, KE, βHB, s-βHB. (h) Verhoeff Van Gieson/EVG staining of abdominal aorta developed with CaCl2)-induced AAA, post-treated with KD, KE, βHB and s-βHB. (i) Average number of elastic fibers on abdominal aorta presented at FIG. 5H. (j) Measurement of Pulse Wave Velocity (PWV) on CaCl2)-infused mice with post-treatment of KD, KE, βHB, and s-βHB.
To confirm the possibility that the therapeutic effect of βHB on AAA is not only applied to AII-induced AAA, the CaCl2)-induced AAA animal model was also examined as well (FIG. 5A).
To further validate the therapeutic efficacy of s-βHB on aneurysms, we used a CaCl2-induced AAA animal model as well as an angiotensin II infusion model. […] Two-way ANOVA, s-βHB vs βHB, #P<0.01, n=10. Since the elimination of senescent SMCs is critical for the recovery of AAA, we investigated that s-βHB is also effective to remove senescent cells in CaCl2)-induced aneurysms. […] Student's T-test for s-βHB vs βHB, ^#P<0.05, n=8.

Data set [4] deals with angiotensin II (AII)-induced AAA. Nature of the data set: AII-induced AAA mouse model, post-treatment. The settings on record: injection every other day for two weeks, FIG. 2E. The class given is in vivo.

“Also recorded” adds a separate entry of the source.

As a reminder, the half-life is how long it takes for the measured level to halve. Lower therefore signals fast loss. Consider `C[C@@H](O)CC(=O)O` [βHB, (R)-3-Hydroxybutyrate], for which the “number of senescent SMCs versus normal SMCs” value in the data set with senescent SMCs [1] is “selectively reduced the number of senescent SMCs and not normal SMCs; also recorded: slightly reduced”. The “apoptosis of senescent SMCs” value in the data set with senescent SMCs [2] is “induced targeted apoptosis of senescent SMCs”. The “apoptosis in normal cells after p53 stabilization” value with normal SMCs (NC) (after p53 stabilization by Nutlin 3a) is on record as “triggers apoptosis”. Besides, the “apoptosis in normal cells (NC)” value in the data set on normal SMCs (NC) (without Nutlin 3a) is listed as “did not induce apoptosis”. Further, the “apoptosis with p53 inhibition” value in the data set with senescent SMCs (SNC) was “did not induce apoptosis”. In data set [3], the half-life was determined as 50 min and the metabolic elimination rate result is reported as “faster than s-βHB”. In addition, the “abnormal curvature on aortic wall (ultrasound)” value in the data set with CaCl2-induced AAA (FIG. 5D) was “repaired abnormal curvature on aortic wall”. In the data set on CaCl2-induced AAA (FIGS. 5A and 5B), the “recovery from CaCl2-induced AAA” value is “Effective recovery”. In addition, in the data set with CaCl2-induced AAA (FIGS. 5F and 5G), the “senescent cells, SA β-gal assay” value is “significantly reduced; also recorded: less effective than KD, KE and s-βHB”. The “elastic laminar / vascular integrity” value with CaCl2-induced AAA (FIGS. 5H and 5I) is listed as “improved vascular integrity”. Besides, the “recovery rate of AAA” value with CaCl2-induced AAA (comparison between treatments, FIG. 5B) is “less effectiveness compared to s-βHB, KD, and KE treatment”. Moreover, the AAA progression entry with CaCl2-induced AAA (post-treatment after four weeks, FIG. 5C) is “inhibited AAA progression”. The “external diameter of the abdominal aorta” value in data set [4] is recorded as “significantly reduced”.
